Results on eight compounds are retold here after patent US20120121591A1 (priority 2009, published 2012).

Format in all cases: cell-based
Test [1] concerns IFN-g secretion from T cells in human whole blood. Conditions: read-out: WB (IFNg) IC50 (nM, Avg).
Another test has as its target hKv1.3 (Homo sapiens, UniProt P22001). As to the kind of experiment: cell-based. To be noted: Kv1.3 (IWQ) IC50 (nM, Avg).
In test [2] the test system is IL-2 secretion from T cells in human whole blood. To be noted: read-out: WB (IL-2) IC50 (nM, Avg).

Sequence of hKv1.3 (P22001 whole entry): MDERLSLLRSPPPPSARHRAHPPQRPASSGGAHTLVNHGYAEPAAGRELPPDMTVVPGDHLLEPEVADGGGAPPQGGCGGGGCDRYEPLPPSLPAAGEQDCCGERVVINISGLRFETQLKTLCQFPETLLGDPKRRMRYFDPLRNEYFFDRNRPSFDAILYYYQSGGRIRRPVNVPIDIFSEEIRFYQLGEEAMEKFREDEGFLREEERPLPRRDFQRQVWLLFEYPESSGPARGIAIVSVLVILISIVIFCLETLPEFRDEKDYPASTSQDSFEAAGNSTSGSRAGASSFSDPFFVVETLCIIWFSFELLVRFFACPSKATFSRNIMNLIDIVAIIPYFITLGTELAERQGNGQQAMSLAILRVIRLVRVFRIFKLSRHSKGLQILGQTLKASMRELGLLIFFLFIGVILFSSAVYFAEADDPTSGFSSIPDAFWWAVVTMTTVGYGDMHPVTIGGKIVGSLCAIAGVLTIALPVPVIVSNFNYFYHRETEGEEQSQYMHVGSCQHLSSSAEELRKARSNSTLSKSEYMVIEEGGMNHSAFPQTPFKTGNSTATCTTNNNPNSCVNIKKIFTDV

One may read the IC50 as the concentration needed to halve the response being measured. Take `CC[C@H](C)[C@@H]1NC(=O)[C@@H](NC(=O)[C@H](CO)NC(=O)[C@@H](N)CCCNC(=N)N)CSSC[C@@H](C(=O)O)NC(=O)[C@H]([C@@H](C)O)NC(=O)CNC(=O)[C@@H]2CSSC[C@@H]3NC(=O)[C@H](CCC(N)=O)NC(=O)[C@H](Cc4ccccc4)NC(=O)[C@H](C)NC(=O)[C@H]([C@@H](C)O)NC(=O)[C@H](CSSC[C@H](NC(=O)[C@H](Cc4ccccc4)NC(=O)[C@H](CO)NC(=O)[C@H](CC(C)C)NC(=O)[C@H](CCCNC(=N)N)NC(=O)[C@H](Cc4ccc(O)cc4)NC(=O)[C@H](CCCCN)NC(=O)[C@H](CCCNC(=N)N)NC(=O)[C@H](CO)NC(=O)[C@H](Cc4c[nH]cn4)NC(=O)[C@H](CCCCN)NC3=O)C(=O)N[C@@H](CCCNC(=N)N)C(=O)N[C@@H](CCCCN)C(=O)N[C@@H]([C@@H](C)O)C(=O)N2)NC(=O)[C@H](CCCNC(=N)N)NC(=O)[C@H](CO)NC(=O)[C@H](CCCCN)NC(=O)[C@@H]2CCCN2C(=O)[C@H]([C@@H](C)CC)NC(=O)[C@H]([C@@H](C)O)NC(=O)[C@H](CC(=O)O)NC1=O` [[Arg21]ShK]: the results for the IC50 (in test [1]; against hKv1.3; in test [2]) were 4.66 nM, 0.283 nM and 1.76 nM, respectively.

Take `CC[C@H](C)[C@@H]1NC(=O)[C@@H](NC(=O)[C@H](CO)NC(=O)[C@@H](N)CCCNC(=N)N)CSSC[C@@H](C(=O)O)NC(=O)[C@H]([C@@H](C)O)NC(=O)CNC(=O)[C@@H]2CSSC[C@@H]3NC(=O)[C@H](CCC(N)=O)NC(=O)[C@H](Cc4ccccc4)NC(=O)[C@H](C)NC(=O)[C@H]([C@@H](C)O)NC(=O)[C@H](CSSC[C@H](NC(=O)[C@H](Cc4ccccc4)NC(=O)[C@H](CO)NC(=O)[C@H](CCCNC(=N)N)NC(=O)[C@H](CCCNC(=N)N)NC(=O)[C@H](Cc4ccc(O)cc4)NC(=O)[C@H](CCCCN)NC(=O)[C@H](CCSC)NC(=O)[C@H](CO)NC(=O)[C@H](Cc4c[nH]cn4)NC(=O)[C@H](CCCCN)NC3=O)C(=O)N[C@@H](CCCNC(=N)N)C(=O)N[C@@H](CCCCN)C(=O)N[C@@H]([C@@H](C)O)C(=O)N2)NC(=O)[C@H](CCCNC(=N)N)NC(=O)[C@H](CO)NC(=O)[C@H](CCCCN)NC(=O)[C@@H]2CCCN2C(=O)[C@H]([C@@H](C)CC)NC(=O)[C@H]([C@@H](C)O)NC(=O)[C@H](CC(=O)O)NC1=O` [[Arg25]ShK]: the IC50 in test [1] is 0.2 nM; at hKv1.3, 0.107 nM; in test [2], 0.095 nM.

Turning to `CC[C@H](C)[C@@H]1NC(=O)[C@@H](NC(=O)[C@H](CO)NC(=O)[C@@H](N)CCCNC(=N)N)CSSC[C@@H](C(=O)O)NC(=O)[C@H]([C@@H](C)O)NC(=O)CNC(=O)[C@@H]2CSSC[C@@H]3NC(=O)[C@H](CCC(N)=O)NC(=O)[C@H](Cc4ccccc4)NC(=O)[C@H](C)NC(=O)[C@H]([C@@H](C)O)NC(=O)[C@H](CSSC[C@H](NC(=O)[C@H](Cc4ccccc4)NC(=O)[C@H](CCCNC(=N)N)NC(=O)[C@H](CC(C)C)NC(=O)[C@H](CCCNC(=N)N)NC(=O)[C@H](Cc4ccc(O)cc4)NC(=O)[C@H](CCCCN)NC(=O)[C@H](CCSC)NC(=O)[C@H](CO)NC(=O)[C@H](Cc4c[nH]cn4)NC(=O)[C@H](CCCCN)NC3=O)C(=O)N[C@@H](CCCNC(=N)N)C(=O)N[C@@H](CCCCN)C(=O)N[C@@H]([C@@H](C)O)C(=O)N2)NC(=O)[C@H](CCCNC(=N)N)NC(=O)[C@H](CO)NC(=O)[C@H](CCCCN)NC(=O)[C@@H]2CCCN2C(=O)[C@H]([C@@H](C)CC)NC(=O)[C@H]([C@@H](C)O)NC(=O)[C@H](CC(=O)O)NC1=O` [[Arg26]ShK], the IC50 worked out at 0.572 nM in test [1], 0.279 nM against hKv1.3 and 0.208 nM in test [2].

As to `CC[C@H](C)[C@@H]1NC(=O)[C@@H](NC(=O)[C@H](CO)NC(=O)[C@@H](N)CCCNC(=N)N)CSSC[C@@H](C(=O)O)NC(=O)[C@H]([C@@H](C)O)NC(=O)CNC(=O)[C@@H]2CSSC[C@@H]3NC(=O)[C@H](CCC(N)=O)NC(=O)[C@H](Cc4ccccc4)NC(=O)[C@H](C)NC(=O)[C@H]([C@@H](C)O)NC(=O)[C@H](CSSC[C@H](NC(=O)[C@H](CCCNC(=N)N)NC(=O)[C@H](CO)NC(=O)[C@H](CC(C)C)NC(=O)[C@H](CCCNC(=N)N)NC(=O)[C@H](Cc4ccc(O)cc4)NC(=O)[C@H](CCCCN)NC(=O)[C@H](CCSC)NC(=O)[C@H](CO)NC(=O)[C@H](Cc4c[nH]cn4)NC(=O)[C@H](CCCCN)NC3=O)C(=O)N[C@@H](CCCNC(=N)N)C(=O)N[C@@H](CCCCN)C(=O)N[C@@H]([C@@H](C)O)C(=O)N2)NC(=O)[C@H](CCCNC(=N)N)NC(=O)[C@H](CO)NC(=O)[C@H](CCCCN)NC(=O)[C@@H]2CCCN2C(=O)[C@H]([C@@H](C)CC)NC(=O)[C@H]([C@@H](C)O)NC(=O)[C@H](CC(=O)O)NC1=O` [[Arg27]ShK], the IC50 came out at 59.7 nM in test [1], 100 nM against hKv1.3 and 13 nM in test [2].

As for `CC[C@H](C)[C@@H]1NC(=O)[C@@H](NC(=O)[C@H](CO)NC(=O)[C@@H](N)CCCNC(=N)N)CSSC[C@@H](C(=O)O)NC(=O)[C@H]([C@@H](C)O)NC(=O)CNC(=O)[C@@H]2CSSC[C@@H]3NC(=O)[C@H](CCC(N)=O)NC(=O)[C@H](Cc4ccccc4)NC(=O)[C@H](C)NC(=O)[C@H]([C@@H](C)O)NC(=O)[C@H](CSSC[C@H](NC(=O)[C@H](Cc4ccccc4)NC(=O)[C@H](CO)NC(=O)[C@H](CC(C)C)NC(=O)[C@H](CCCNC(=N)N)NC(=O)[C@H](Cc4ccc(O)cc4)NC(=O)[C@H](CCCCN)NC(=O)[C@H](CCSC)NC(=O)[C@H](CO)NC(=O)[C@H](Cc4c[nH]cn4)NC(=O)[C@H](CCCCN)NC3=O)C(=O)N[C@@H](CCCNC(=N)N)C(=O)N[C@@H](CCCNC(=N)N)C(=O)N[C@@H]([C@@H](C)O)C(=O)N2)NC(=O)[C@H](CCCNC(=N)N)NC(=O)[C@H](CO)NC(=O)[C@H](CCCCN)NC(=O)[C@@H]2CCCN2C(=O)[C@H]([C@@H](C)CC)NC(=O)[C@H]([C@@H](C)O)NC(=O)[C@H](CC(=O)O)NC1=O` [[Arg30]ShK], the results for the IC50 (in test [1]; against hKv1.3; in test [2]) were 0.027 nM, 0.04 nM and 0.014 nM, respectively.

In the case of `CC[C@H](C)[C@@H]1NC(=O)[C@@H](NC(=O)[C@H](CO)NC(=O)[C@@H](N)CCCNC(=N)N)CSSC[C@@H](C(=O)O)NC(=O)[C@H]([C@@H](C)O)NC(=O)CNC(=O)[C@@H]2CSSC[C@@H]3NC(=O)[C@H](CCC(N)=O)NC(=O)[C@H](Cc4ccccc4)NC(=O)[C@H](C)NC(=O)[C@H]([C@@H](C)O)NC(=O)[C@H](CSSC[C@H](NC(=O)[C@H](Cc4ccccc4)NC(=O)[C@H](CO)NC(=O)[C@H](CC(C)C)NC(=O)[C@H](CCCNC(=N)N)NC(=O)[C@H](Cc4ccc(O)cc4)NC(=O)[C@H](CCCCN)NC(=O)[C@H](CCSC)NC(=O)[C@H](CO)NC(=O)[C@H](Cc4c[nH]cn4)NC(=O)[C@H](CCCCN)NC3=O)C(=O)N[C@@H](CCCNC(=N)N)C(=O)N[C@@H](CCCCN)C(=O)N[C@@H](CCCNC(=N)N)C(=O)N2)NC(=O)[C@H](CCCNC(=N)N)NC(=O)[C@H](CO)NC(=O)[C@H](CCCCN)NC(=O)[C@@H]2CCCN2C(=O)[C@H]([C@@H](C)CC)NC(=O)[C@H]([C@@H](C)O)NC(=O)[C@H](CC(=O)O)NC1=O` [[Arg31]ShK], the IC50 in test [1] was 54.8 nM; at hKv1.3, 3.3 nM; in test [2] it was 12 nM.

Consider `CC[C@H](C)[C@@H]1NC(=O)[C@@H](NC(=O)[C@H](CO)NC(=O)[C@@H](N)CCCNC(=N)N)CSSC[C@@H](C(=O)O)NC(=O)[C@H]([C@@H](C)O)NC(=O)[C@H](CCCNC(=N)N)NC(=O)[C@@H]2CSSC[C@@H]3NC(=O)[C@H](CCC(N)=O)NC(=O)[C@H](Cc4ccccc4)NC(=O)[C@H](C)NC(=O)[C@H]([C@@H](C)O)NC(=O)[C@H](CSSC[C@H](NC(=O)[C@H](Cc4ccccc4)NC(=O)[C@H](CO)NC(=O)[C@H](CC(C)C)NC(=O)[C@H](CCCNC(=N)N)NC(=O)[C@H](Cc4ccc(O)cc4)NC(=O)[C@H](CCCCN)NC(=O)[C@H](CCSC)NC(=O)[C@H](CO)NC(=O)[C@H](Cc4c[nH]cn4)NC(=O)[C@H](CCCCN)NC3=O)C(=O)N[C@@H](CCCNC(=N)N)C(=O)N[C@@H](CCCCN)C(=O)N[C@@H]([C@@H](C)O)C(=O)N2)NC(=O)[C@H](CCCNC(=N)N)NC(=O)[C@H](CO)NC(=O)[C@H](CCCCN)NC(=O)[C@@H]2CCCN2C(=O)[C@H]([C@@H](C)CC)NC(=O)[C@H]([C@@H](C)O)NC(=O)[C@H](CC(=O)O)NC1=O` [[Arg33]ShK], for which the IC50 came out at 0.232 nM in test [1], 0.102 nM against hKv1.3 and 0.068 nM in test [2].

Turning to `CCCC[C@@H]1NC(=O)[C@H](CO)NC(=O)[C@H](Cc2c[nH]cn2)NC(=O)[C@H](CCCCN)NC(=O)[C@@H]2CSSC[C@@H]3NC(=O)[C@H]([C@@H](C)O)NC(=O)[C@H](CCCCN)NC(=O)[C@H](CCCNC(=N)N)NC(=O)[C@H](CSSC[C@H](NC(=O)[C@H](CCCNC(=N)N)NC(=O)[C@H](CO)NC(=O)[C@H](CCCCN)NC(=O)[C@@H]4CCCN4C(=O)[C@H]([C@@H](C)CC)NC(=O)[C@H]([C@@H](C)O)NC(=O)[C@H](CC(=O)O)NC(=O)[C@H]([C@@H](C)CC)NC(=O)[C@@H](NC(=O)[C@H](CO)NC(=O)[C@@H](N)CCCNC(=N)N)CSSC[C@@H](C(N)=O)NC(=O)[C@H]([C@@H](C)O)NC(=O)CNC3=O)C(=O)N[C@@H]([C@@H](C)O)C(=O)N[C@@H](C)C(=O)N[C@@H](Cc3ccccc3)C(=O)N[C@@H](CC(N)=O)C(=O)N2)NC(=O)[C@H](Cc2ccccc2)NC(=O)[C@H](CO)NC(=O)[C@H](CC(C)C)NC(=O)[C@H](CCCNC(=N)N)NC(=O)[C@H](Cc2ccc(O)cc2)NC(=O)[C@H](CCCCN)NC1=O` [[Asn16,Nle21]ShK-amide], the IC50 in test [1] was 1.07 nM; against hKv1.3, 0.171 nM; in test [2] it was 0.689 nM.
